For CCCc1c(-c2ccc(OC(F)F)c(OC3CC3)c2)[nH]c2cnn(COCC[Si](C)(C)C)c(=O)c12, the melting point was 208 to 210 °C.
Compound CS(=O)CC(=N)c1ccccc1O (stereo unspecified) has a melting point of 194 to 195 °C.
Work on C=CCCCCCCCCC(O)CC(=O)O (stereo unspecified) yielded a melting point of 62 to 64 °C.
With CCCc1cc([N+](=O)[O-])cc2cc(C(=O)OCC)oc12 the melting point was 111 °C.
Compound COc1nc(C)nc(NC(=O)NS(=O)(=O)c2cccc3c2OS(=O)(=O)C(C)=C3)n1 has a melting point of 203 to 205 °C.
[N-]=[N+]=NCc1ccc(C(=O)O)c(Cl)c1 gave a melting point of 87 to 88 °C.
In the case of COc1ccc(N)c2nccc(Cl)c12, the melting point is reported as 111 to 115 °C.
CCSC1=CCC2C3CCC4=CC(=O)C=CC4(C)C3(F)C(OC(C)=O)CC12C (stereo unspecified) gave a melting point of 211 to 215 °C.
Compound CS(=O)c1ccc(C2=C(c3ccccc3)C(=O)C(C)(C)O2)c(F)c1 (stereo unspecified) has a melting point of 149 to 150 °C.
For COc1cccc2c1nc(C(F)F)n2-c1nc(Nc2ccc(N)nc2)nc(N2CCOCC2)n1, the melting point was 267 to 270 °C.
For CC(C#N)Oc1ccc(Oc2ccc(C(F)(F)F)cc2)cc1 (stereo unspecified), the melting point was 53 to 56 °C.
Compound CC(=O)C(=Cc1cccc([N+](=O)[O-])c1)C(=O)OC(C)(C)CN(C)CCC(c1ccccc1)c1ccccc1 has a melting point of 65 to 80 °C.
Work on CS(=O)(=O)c1ccc(C(=O)C2=C(O)C3CCC(C3)C2=O)c([N+](=O)[O-])c1 (stereo unspecified) yielded a melting point of 170 °C.
Nc1nc(C2CC2)nc(C(Cl)(Cl)Cl)n1 showed a melting point of 111 to 114 °C.
Compound NN(Cc1nccs1)C1CCCN(C(=O)c2ccc(Nc3nccc(Nc4ccc(F)cc4)n3)cc2)C1 (stereo unspecified) has a melting point of 160 to 165 °C.
Compound O=C(NC1=Cc2cncn2CN=C1)c1ccccc1 has a melting point of 158 to 160 °C.
Cc1ccc(-c2ccc(-c3nnn[nH]3)cc2)cc1C showed a melting point of 192 to 194 °C.
COC(=O)CCc1ccc(-n2ccn(-c3ccc(C(=N)NC(=O)OC)cc3)c2=O)cc1 showed a melting point greater than 260 °C.
In the case of C=CC[C@@H](C(=O)N[C@H](C(=O)OCc1ccccc1)C(C)(C)C)[C@@H]1OC(C)(C)OC1=O, the melting point is reported as 67 to 70 °C.
CCOC(=O)c1[nH]c2ccccc2c1CN(Cc1cc(C(F)(F)F)cc(C(F)(F)F)c1)c1nnn(C)n1 showed a melting point of 83 °C.
Cc1oc(-c2ccccc2)nc1COc1ccc2cc(CCc3nnn[nH]3)oc2c1 showed a melting point of 177 to 178 °C.
For Ic1ccc(-c2nc3ccccc3n2-c2ccccc2)cc1, the melting point was 178 to 181 °C.
CC(C)(C)OC(=O)NCC1CCN(CC2(C(=O)O)CCOCC2)CC1 gave a melting point of 129 °C.
Work on CS(=O)(=O)NC(=O)CCc1ccc(OC2CCc3cc(Cl)ccc32)cc1 (stereo unspecified) yielded a melting point of 140 to 141 °C.
In the case of CCCC(=O)c1cc(C(=O)C(=O)OC(=O)C(=O)c2cc(C(=O)CCC)c(C)cc2N)c(N)cc1C, the melting point is reported as 224 to 226 °C.
With O=C(O)C1CC(c2ccccc2)=NN1 (stereo unspecified) the melting point was 180 to 182 °C.
Work on CCCCc1nc2c(N)nc3ccccc3c2n1CC(C)(C)OCCS(C)(=O)=O yielded a melting point of 196 to 198 °C.
COc1nc(C)c(C)cc1NC(=S)N1CCN(c2cc(F)cc(F)c2)CC1 showed a melting point of 60 to 62 °C.
Compound N#Cc1c(CNS(=O)(=O)c2c(F)cccc2F)nn(-c2ccc(Cl)cc2Cl)c1-c1ccc(O)cc1 has a melting point of 196 °C.
CC(=O)OC1CC2=CCC3C(CCC4(C)C(C(C)CCCC(C)C)CCC34)C2(C)CC1F (stereo unspecified) showed a melting point of 116 to 119 °C.
Work on CCO/C(=C\c1ccsc1)C(=O)O yielded a melting point of 88 to 89 °C.
With COc1cc(Nc2nccc(-c3ccc(NCCCO)cc3)n2)cc(OC)c1OC the melting point was 86 to 90 °C.
CC(=O)N(C(C)=O)C1=C(N2CCN(c3ccc(F)cc3)CC2)C(=O)c2ccccc2C1=O showed a melting point of 149 to 150 °C.
For COc1cccc(Oc2c(NS(=O)(=O)c3ccc(C(C)(C)C)cc3)ncnc2OCCOc2ccncn2)c1, the melting point was 149 to 150 °C.
Work on COc1ccc(-c2nc(C(=O)N3CCN(C(C)=O)CC3)sc2-c2ccc(OC)cc2)cc1 yielded a melting point of 176 to 178 °C.
In the case of Cc1cc(C=CC#N)cc(Oc2c(C(C)C)c(=O)[nH]c(=O)n2Cc2ccnc(N3C(=O)c4ccccc4C3=O)c2)c1, the melting point is reported as 229 to 231 °C.
Cc1c(C(=O)O)ccc(S(C)(=O)=O)c1S(C)(=O)=O gave a melting point of 192 to 198 °C.
For CCOC1=CC2=CCC3C4CC(C)(C)C(=O)C4(C)CCC3C2(C)CC1 (stereo unspecified), the melting point was 133 to 137 °C.
For COc1cc(O)cc(Cc2cnc(N)nc2N)c1, the melting point was 246 to 248 °C.
In the case of O=C(O)C(CCc1ccccc1)Oc1c(Br)cc(-c2ccc(-c3c(Cc4ccccc4)sc4ccccc34)cc2)cc1Br (stereo unspecified), the melting point is reported as 85 to 87 °C.
CC(=O)Nc1nc(CCc2ccc(NC(=O)OC(C)(C)C)cc2)c(C(=O)O)s1 showed a melting point of 237 to 238 °C.
Cc1cccc(CCC(=O)Cn2ccnc2)c1 gave a melting point of 160 to 162 °C.
Work on N#Cc1c(N2CCN(C(=O)c3cccs3)CC2)c2cc(F)cnc2n(Cc2ccccc2)c1=O yielded a melting point of 173 °C.
In the case of O=S(=O)(c1ccc(Cl)cc1)N1CCC[C@@H](Nc2nccc(-c3c(-c4cccc(CO)c4)nc4sccn34)n2)C1, the melting point is reported as 150 to 155 °C.
O=C(c1ccc(-c2ccccc2)cc1)c1cccnc1 showed a melting point of 112 to 115 °C.
Work on CCOC(=O)c1csc2cc(Oc3ccnc(N)n3)ccc12 yielded a melting point of 144 to 145 °C.
Compound CCCC1=C(C(=O)OCC)SCCS1=O (stereo unspecified) has a melting point of 109 to 110 °C.
Compound CC(=O)Oc1c(C2CCN(CCCCNC(=O)c3ccc(NC(=O)c4ccc(Cl)cc4)cc3)CC2)ccc2ccccc12 has a melting point of 240 °C.
For O=C(O[C@H]1Cc2c(O)cc(O)cc2O[C@@H]1c1ccc(O)c(O)c1)c1cc(O)c(O)c(O)c1, the melting point was 105 to 107 °C.
Work on COc1ccc(-n2c(-c3ccc(N(C)C)cc3)nnc2C(C)O)cc1 (stereo unspecified) yielded a melting point of 190 °C.
Cc1nnc(-c2cccc(I)c2)s1 showed a melting point of 86 to 89 °C.
Work on NC(=O)N(O)Cc1ccc(Oc2ccccc2)s1 yielded a melting point of 114 to 116 °C.
For CC(C)(O)c1cccc(-c2ccc3nc(-c4ccc(Cl)cc4)cn3c2)c1Cl, the melting point was 230 to 231 °C.
With CCOC(=O)C(=O)Nc1cc(C)c(C)cc1[N+](=O)[O-] the melting point was 109 °C.
Compound O=C(O)c1cccc(NC(=O)C(CS)Cc2cccnc2)c1 (stereo unspecified) has a melting point of 94 to 97 °C.
Compound Cc1nnc(NCCN(C)C)nc1C has a melting point of 46 to 49 °C.
In the case of CCCCc1ncc(/C=C(/C(=O)O)c2ccccc2)n1Cc1ccccc1Cl, the melting point is reported as 210 to 212 °C.
COc1cc([N+](=O)[O-])ccc1-c1ccccc1 gave a melting point of 71 °C.
CC(C)(C)COc1c(-c2ccc(S(N)(=O)=O)cc2)cnn(CC(F)(F)F)c1=O gave a melting point of 123 to 124 °C.
With COC(=O)c1cc2cc(C)ccc2nn1 the melting point was 170 to 172 °C.
In the case of CCCc1c(OCC(=N)OCC)ccc(C(C)=O)c1O, the melting point is reported as 50 to 52 °C.
Work on O=c1c2c(CBr)c(-c3ccc([N+](=O)[O-])cc3)sc2n(Cc2c(F)cccc2F)c(=O)n1-c1ccccc1 yielded a melting point of 228 to 229 °C.
Compound CCOC(=O)C1=CC2(CCC1S(=O)(=O)Nc1ccc(F)cc1Cl)SCCS2 (stereo unspecified) has a melting point of 160 to 161 °C.
In the case of O=C(O)Cc1ccc(I)c(OCC(F)(F)F)c1, the melting point is reported as 153 to 154 °C.
For COc1ccc(N2CCN(C(=O)C(c3ccccc3)n3cnc4[nH]ncc4c3=S)CC2)cc1 (stereo unspecified), the melting point was 114 to 118 °C.
Compound Cn1nc(-c2cccc(C(F)(F)F)c2)c(O)c1C(=O)O has a melting point of 192 to 194 °C.
With COc1ccc(N)c(-c2cc3ccccc3[nH]2)c1 the melting point was 97 to 99 °C.
For CC(=O)c1c(C)nc(C)nc1NCc1ccc(-c2ccccc2-c2nnnn2C(C)(C)C)cc1, the melting point was 131 to 132 °C.
Cc1ccc(S(=O)(=O)NC(=O)C(Cl)Cc2cc(-n3nc(C)n(C(F)F)c3=O)c(F)cc2Cl)cc1 (stereo unspecified) showed a melting point of 267 to 269 °C.
With O=S1(=O)c2cccc3cccc(c23)N1CCCN1CCN(c2nsc3ccccc23)CC1 the melting point was 172 to 173 °C.
Compound COc1cc(CNC(C)=O)c(Br)cc1O has a melting point greater than 300 °C.
CC1(C)CN2C(=O)c3ncccc3C(O)(c3ccc(Cl)cc3)C2=N1 (stereo unspecified) gave a melting point of 257 to 260 °C.
In the case of C=C1C[C@@H]2[C@H](CC[C@]3(C)C(=O)CC[C@@H]23)[C@@]2(C)CCC(=O)C=C12, the melting point is reported as 155 to 160 °C.
In the case of Cc1nnc2n1-c1sc(C#CCCN3C(=O)c4cccc5cccc(c45)C3=O)cc1C(c1ccccc1Cl)=NC2, the melting point is reported as 175 to 179 °C.
With Cc1cc(Cn2cccn2)cc2c1Cc1c(-c3ccsc3)n[nH]c1-2 the melting point was 271 to 274 °C.
CN1CCC(C2(O)c3ccccc3Oc3ccc(Cl)cc32)CC1 (stereo unspecified) gave a melting point of 206 to 208 °C.
COC(=O)COc1ccc(CC(C)NCC(O)c2cccc(C(F)(F)F)c2)cc1C (stereo unspecified) showed a melting point of 75 to 79 °C.
In the case of CN(C)S(=O)(=O)NCC1COc2ccccc2O1 (stereo unspecified), the melting point is reported as 76 to 78 °C.
For O=C1N2CCc3ccsc3C23SC1(c1ccccc1)CC3[N+](=O)[O-] (stereo unspecified), the melting point was 192 to 196 °C.
For CCCCc1oc2ccc(C(=O)OC)cc2c1C(=O)c1ccc(OCCCNCC(C)(C)C)cc1, the melting point was 61 to 63 °C.
Compound O=C1c2cc3c(cc2CCC1(Br)Br)OCC3 has a melting point of 138 to 142 °C.
Work on Cc1oc(-c2ccccc2)nc1COc1ccc(C(=O)c2ccc(O)cc2OCC(=O)O)cc1 yielded a melting point of 229 to 230 °C.
O=C(O)[C@@H]1CCCN1C(=O)C1CCC1S (stereo partly specified) showed a melting point of 145 to 146 °C.
In the case of Clc1cc2c(s1)-n1c(nnc1CN1CCOCC1)CN=C2c1ccccc1Cl, the melting point is reported as 224 to 226 °C.
For CCC1(C)CC(N(CCN(C(C)=O)C2CC(C)(CC)NC(C)(CC)C2C)C(C)=O)C(C)C(C)(CC)N1 (stereo unspecified), the melting point was 173 to 175 °C.
Cc1cccc(C)c1Oc1ccc2ccc(N)nc2n1 gave a melting point of 218 °C.
In the case of CN(C)S(=O)(=O)c1cc(C(=O)O)cc([N+](=O)[O-])c1Oc1ccccc1, the melting point is reported as 224 to 226 °C.
For Cc1cncc(CN2CCC(=C3c4ccc(Cl)cc4CCc4cccnc43)CC2)c1, the melting point was 58 to 61 °C.
Compound Cc1nc[nH]c1CSCCN=C(NC#N)NCCO has a melting point of 146 to 147 °C.
For CSc1ccc2c(=O)cc(C(=O)N[C@H]3CCN(C(=O)c4cc(C(F)(F)F)cc(C(F)(F)F)c4)[C@H](Cc4ccc(Cl)cc4)C3)oc2c1, the melting point was 137 to 140 °C.
Compound O=C(O)[C@@H]1CC(=Cc2ccccc2)CN1C(=O)OCc1ccccc1 has a melting point of 142 to 150 °C.
For CCOC(=O)n1cc(C#N)c(-c2ccc(F)c(Cl)c2F)c1, the melting point was 132 °C.
For COc1c(C)c(C)c(OCc2ccccc2)c(C)c1CN(C)CCOc1cc(C)ccc1C(C)C, the melting point was 138 to 141 °C.
O=C(CCCCOc1ccc(C2=NCCO2)cc1)c1ccc(Cl)s1 gave a melting point of 143 to 144 °C.
With N#Cc1cccn2cc(-c3ccc(C(=O)NCCC(=O)O)cc3)nc12 the melting point was 212 to 215 °C.
CS(=O)(=O)c1ccc(-c2cnn(Cc3ccccc3)c(=O)c2Cc2ccc(F)cc2)cc1 showed a melting point of 186 to 189 °C.

— a melting point compilation (Tetko et al.; mined from patent text by program, amines drawn as free bases though some values may be those of a salt)
